Assays:
[1] = test system: neonatal organ of Corti explants; experiment: Neonatal organ of Corti explant culture, hair cell number; type: cell-based, mouse
Procedure: Cochleae of 3-d-postnatal C57BL/6 or Mos-iCsp3; Pou4f3-Cre double transgenic mice of both sexes were dissected in Hanks solution (Invitrogen). To obtain a flat cochlear surface preparation, the spiral ganglion, Reissner's membrane, and the most basal cochlear segment were removed. Explants were plated onto 4 well plates (Greiner Bio-One) coated with poly-L-ornithine (0.01%, Sigma) and laminin (50 μg/ml, Becton Dickinson). Cochlear explants were cultured in DMEM (Invitrogen) with 10% fetal bovine serum. All cultures were maintained in a 5% CO2/20% O2-humidified incubator (Forma Scientific).
For explants, the organs of Corti were fixed for 15 min with 4% paraformaldehyde in PBS. […] Primary antibodies were detected with secondary antibodies conjugated with Alexa 488 and 647 (Molecular Probes). The samples were stained with rhodamine phalloidin (Invitrogen) for 15 min and viewed by confocal fluorescence microscopy (TCS SP5, Leica).
Cell counting for spheres was performed with MetaMorph software. The cell number was determined from DAPI- or Hoechst-positive nuclei. […] For explants, inner hair cells, outer hair cells, and supporting cells in the outer hair cell region were counted on cochlear whole mounts. […] High-power images of the full-length cochlea or cochlear explant cultures were assembled and analyzed in PhotoShop CS4 (Adobe). […] Density (cells per 100 μm) was then calculated for each segment. […]

Hes5 mRNA = experiment: qRT-PCR of Hes5 in deafened mature cochlea after round window administration; type: in vivo, mouse
Procedure: (§1) 4-week-old mice were exposed free-field, awake and unrestrained, in a small reverberant chamber (22). Acoustic trauma was produced by a 2 h exposure to an 8-16 kHz octave band noise presented at 116 dB SPL. The exposure stimulus was generated by a custom white-noise source, filtered (Brickwall Filter with a 60 dB/octave slope), amplified (Crown power amplifier), and delivered (JBL compression driver) through an exponential horn fitted securely to a hole in the top of a reverberant box.
(§2) 4-week-old mice weighing 12 to 16 g were used. Before surgery, the animals were anesthetized with ketamine (20 mg/kg, i.p.) and xylazine (100 mg/kg, i.p.), and an incision was made posterior to the pinna near the external meatus after local administration of lidocaine (1%). […]
(§3) The organs of Corti were dissected in HBSS (Invitrogen) and stored in RNAlater (Ambion) at −80° C. until further use. […] Samples were analyzed in 96 wells in triplicate by qPCR (Applied Biosystems 7900HT), and PCR thermal cycling conditions were as follows: initial denaturation at 95° C. for 2 min, denaturation at 95° C. for 15 s, annealing/extension at 60° C. for 1 min for 45 cycles. […] Relative gene expression was analyzed by using the ΔΔCT method. Gene expression was calculated relative to 18S RNA, and the amount of cDNA applied was adjusted so that the Ct value for 18S RNA was between 8 and 11. […]

Atoh1 mRNA = experiment: qRT-PCR of Atoh1 in deafened mature cochlea after round window administration; type: in vivo, mouse
Procedure: as §1, §2, §3

C[C@H](NC(=O)[C@@H](O)c1cc(F)cc(F)c1)C(=O)N[C@@H]1C(=O)N(C)c2ccccc2-c2ccccc21 [LY411575, N-2((2S)-2-(3,5-difluorophenyl)-2-hydroxyethanoyl)-N1-((7S)-5-methyl-6-oxo-6,7-dihydro-5H-dibenzo[b,d]azepin-7-yl)-l-alaninamide]
increase in number of myosin VIIa-positive cells in the outer hair cell region compared to the control ([1]; LY411575 1 μM, 72 h, p<0.05): 30 cells/100 μm
number of hair cells in wild-type organ of Corti (Wt) ([1]; apex, mid-apex and mid-base, cultured 3 d): Increased
noise-induced Hes5 mRNA induction (Hes5 mRNA; round window niche, 4 mM 1 μl, 1 d after noise, at 1 d, p<0.01 vs control cochlea): completely blocked
Hes5 expression level (Hes5 mRNA; three days after LY411575 treatment): unchanged from the control cochlea
Atoh1 expression above the level post-noise exposure (Atoh1 mRNA; 1 d after LY411575 treatment, round window niche): 2.28 ×
Atoh1 expression (Atoh1 mRNA; 3 d after treatment, p<0.05): remained elevated
